Molecular target: HLA-DQ8
Assay: Competitive in vitro HLA-DQ8 binding assay
Design: species or system human
Conditions: competition with FITC-labelled GAD65 253-265 R255F peptide (10 μM), thrombin-cleaved HLA-DQ8 monomers 0.4 μM, 48 h at 37 °C; one-site competitive binding fit
Protocol: Competitive binding assays were carried out according to previously established procedures[30][67][68]: HLA-DQ8 monomers were kindly provided by R.A.W. from the NIH Tetramer Core Facility (Atlanta, USA). The CLIP peptide of HLA-DQ8 molecules was cleaved off by incubation with thrombin (Novagen) for 2 h (ref. [69]).
Specifically, a FITC-labelled GAD65 253-265^R255F peptide (IAFFKMFPEVKEK) was used as an indicator peptide (10 μM) for the binding reaction together with thrombin-cleaved HLA-DQ8 monomers (0.4 μM) and increasing concentrations of competitor peptides (natural insulin B:9-23, ins.mim.1,2,3,4, MP185-204). The MP185-204 peptide ([…]) was used as a positive DQ8-binding control. The indicator peptide incubated with DQ8 monomers in the absence of competitor peptide was used as positive control. For background analysis the binding reaction was performed without HLA-DQ8 monomers. The binding reaction was incubated for 48 h at 37 °C. Assays were then captured using anti-DQ antibody-coated plates (SPV-L3, Abcam, 15 μg ml^−1). Detection was performed using anti-FITC HRP (Abcam, 1:1,000) antibodies in combination with TMB substrate (BD Biosciences) and subsequent analysis with the Epoch plate reader (Biotech) at 450 and 405 nm. […]

| Substance | IC50 [µM] |
| --- | --- |
| ins.mim.1: novel human insulin-B-chain-10-23 mimetope with 14E, 21G and 22E | 3.2 |
| ins.mim.2: insulin-B:10-23 peptide variant with 21G and 22E, previously established | 6.3 |
